Consider 21 molecules from patent US10689354B2, “Aminoazole derivative” (Teijin Pharma Limited, priority 2015, dated 2020).

SMILES strings stand for the structures.

Assay [1] deals with T1, androgen receptor (AR-LBD) (Rattus norvegicus, UniProt P15207).
T1 construct: 5 μL of 2×AR-LBD/Fluoromone AL Red Complex contained in the kit; purchased Invitrogen
T1 sequence (P15207 651-882 limits assumed): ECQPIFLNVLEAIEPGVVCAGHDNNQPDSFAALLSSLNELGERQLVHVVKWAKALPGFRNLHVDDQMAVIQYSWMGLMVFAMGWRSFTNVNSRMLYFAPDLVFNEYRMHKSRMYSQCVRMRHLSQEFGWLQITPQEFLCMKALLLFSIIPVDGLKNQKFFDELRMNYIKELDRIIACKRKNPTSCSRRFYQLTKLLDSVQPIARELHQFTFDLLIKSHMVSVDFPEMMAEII
Briefly: Evaluation of androgen receptor affinity (PolarScreen Androgen Receptor Competitor Assay Kit, Red; fluorescence polarization). Conditions: 22° C. for 5 hours, relative to binding rate of 1 μM DHT, read-out: AR affinity (pEC50) (converted). Summed up:
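pEC50 values reflect tracer displacement from AR-LBD (Fluoromone AL Red complex) measured by fluorescence polarization after 5 h at 22° C, normalized to 1 μM DHT and fitted with a 4-parameter model.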

Another assay addresses T2, human androgen receptor (Homo sapiens, UniProt P10275).
T2 construct: expressed in transfected cells; host or cells: HEK293
T2 sequence (P10275 1-920): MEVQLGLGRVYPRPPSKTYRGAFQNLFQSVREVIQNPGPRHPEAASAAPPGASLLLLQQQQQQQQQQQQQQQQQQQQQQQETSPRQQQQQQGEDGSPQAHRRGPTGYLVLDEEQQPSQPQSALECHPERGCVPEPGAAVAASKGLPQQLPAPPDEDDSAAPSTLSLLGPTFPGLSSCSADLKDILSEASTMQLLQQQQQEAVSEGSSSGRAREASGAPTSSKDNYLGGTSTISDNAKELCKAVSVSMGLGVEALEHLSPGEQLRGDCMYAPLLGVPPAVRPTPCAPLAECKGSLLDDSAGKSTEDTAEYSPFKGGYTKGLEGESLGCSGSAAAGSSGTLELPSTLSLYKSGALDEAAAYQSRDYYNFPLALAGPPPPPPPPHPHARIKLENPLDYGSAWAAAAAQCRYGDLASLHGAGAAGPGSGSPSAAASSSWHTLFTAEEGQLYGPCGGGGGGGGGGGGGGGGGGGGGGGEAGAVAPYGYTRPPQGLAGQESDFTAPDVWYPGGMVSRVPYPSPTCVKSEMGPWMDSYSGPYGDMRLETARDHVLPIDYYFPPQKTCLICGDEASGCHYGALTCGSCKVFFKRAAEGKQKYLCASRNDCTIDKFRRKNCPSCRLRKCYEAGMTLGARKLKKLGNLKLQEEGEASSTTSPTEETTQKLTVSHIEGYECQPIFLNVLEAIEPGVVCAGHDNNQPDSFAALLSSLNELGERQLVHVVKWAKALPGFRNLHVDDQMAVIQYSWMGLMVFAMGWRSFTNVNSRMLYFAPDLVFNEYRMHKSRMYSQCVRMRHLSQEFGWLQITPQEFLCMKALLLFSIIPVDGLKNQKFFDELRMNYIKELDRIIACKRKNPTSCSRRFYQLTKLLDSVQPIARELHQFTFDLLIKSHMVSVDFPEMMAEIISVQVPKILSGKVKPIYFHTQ
Briefly: Reporter assay of an androgen receptor responsive sequence (luciferase, transiently transfected HEK293 cells). The class given is cell-based. The settings on record: 24 hours incubation, relative to activity of 100 nM DHT, read-out: AR transcriptive activity (pEC50) (converted). An outline of the steps: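 HEK293 cells transiently transfected for 3 h with ARE-firefly luciferase, full-length human AR and TK-Renilla plasmids, then exposed to compound for 24 h at 37 °C in 5% charcoal-treated FBS/DMEM. Dual-Glo luminescence read; pEC50 from 4-parameter fit relative to 100 nM DHT.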

For `CCS(=O)(=O)NC(=O)c1nc(N(CCc2ccc(Cl)cc2)Cc2ccc(OC(F)(F)F)cc2)sc1C` [Compound 701, 2-[2-(4-chlorophenyl)ethyl-[[4-(trifluoromethoxy)phenyl]methyl]amino]-N-ethylsulfonyl-5-methyl-thiazole-4-carboxamide], the EC50 in assay [1] was 63.1 nM; at human androgen receptor, 1260 nM.
Turning to `Cc1sc(N(CCc2ccc(Cl)cc2)Cc2ccc(OC(F)(F)F)cc2)nc1C(=O)NS(=O)(=O)C1CC1` [Compound 702, 2-[2-(4-chlorophenyl)ethyl-[[4-(trifluoromethoxy)phenyl]methyl]amino]-N-cyclopropylsulfonyl-5-methyl-thiazole-4-carboxamide], the EC50 in assay [1] is 200 nM; at human androgen receptor it was over 10000 nM.
On to `Cc1sc(N(CCc2ccc(Cl)cc2)Cc2ccc(OC(F)(F)F)cc2)nc1C(=O)NS(=O)(=O)Cc1cccnc1` [Compound 703, 2-[2-(4-chlorophenyl)ethyl-[[4-(trifluoromethoxy)phenyl]methyl]amino]-5-methyl-N-(3-pyridylmethylsulfonyl)thiazole-4-carboxamide], for which the EC50 in assay [1] was 31.6 nM; at human androgen receptor it was 158 nM.
On to `Cc1sc(N(CCc2ccc(Cl)cc2)Cc2ccc(OC(F)(F)F)cc2)nc1C(=O)NS(=O)(=O)C(F)(F)F` [Compound 704, 2-[2-(4-chlorophenyl)ethyl-[[4-(trifluoromethoxy)phenyl]methyl]amino]-5-methyl-N-(trifluoromethylsulfonyl)thiazole-4-carboxamide], for which the values for the EC50 (in assay [1]; at human androgen receptor) were 316 nM and over 10000 nM, respectively.
As to `Cc1sc(N(CCc2ccc3c(c2)OCO3)Cc2ccccc2)nc1C(=O)NS(C)(=O)=O` [Compound 708, 2-[2-(1,3-benzodioxol-5-yl)ethyl-benzyl-amino]-5-methyl-N-methylsulfonyl-thiazole-4-carboxamide], the EC50 is 79.4 nM in assay [1] and 501 nM on human androgen receptor.
For `Cc1sc(N(CCn2cc(Cl)cn2)Cc2ccccc2)nc1C(=O)NS(C)(=O)=O` [Compound 709, 2-[benzyl-[2-(4-chloropyrazol-1-yl)ethyl]amino]-5-methyl-N-methylsulfonyl-thiazole-4-carboxamide], in that order: 200 nM and 631 nM.
The matching figures for `Cc1sc(N(CCc2ccc(Cl)c(Cl)c2)Cc2ccccc2)nc1C(=O)NS(C)(=O)=O` [Compound 710, 2-[benzyl-[2-(3,4-dichlorophenyl)ethyl]amino]-5-methyl-N-methylsulfonyl-thiazole-4-carboxamide]: 50.1 nM and 398 nM.
For `CCS(=O)(=O)NC(=O)c1nc(N(CCc2ccc(C#N)cc2)Cc2ccc(Cl)cc2)sc1C` [Compound 713, 2-[(4-chlorophenyl)methyl-[2-(4-cyanophenyl)ethyl]amino]-N-ethylsulfonyl-5-methyl-thiazole-4-carboxamide], in that order: 31.6 nM and 251 nM.
In the case of `Cc1sc(N(CCc2ccc(C#N)cc2)Cc2ccc(Cl)cc2)nc1C(=O)NS(=O)(=O)C1CC1` [Compound 714, 2-[(4-chlorophenyl)methyl-[2-(4-cyanophenyl)ethyl]amino]-N-cyclopropylsulfonyl-5-methyl-thiazole-4-carboxamide], the EC50 in assay [1] is 79.4 nM; on human androgen receptor, 1260 nM.
Take `Cc1sc(N(CCc2ccc(C#N)cc2)Cc2ccc(Cl)cc2)nc1C(=O)NS(=O)(=O)C(F)(F)F` [Compound 715, 2-[(4-chlorophenyl)methyl-[2-(4-cyanophenyl)ethyl]amino]-5-methyl-N-(trifluoromethylsulfonyl)thiazole-4-carboxamide]: the EC50 in assay [1] was 126 nM; on human androgen receptor, 2510 nM.
Turning to `Cc1sc(N(CCc2ccc(C#N)cc2)CC2CCCCC2)nc1C(=O)NS(C)(=O)=O` [Compound 716, 2-[2-(4-cyanophenyl)ethyl-(cyclohexylmethyl)amino]-5-methyl-N-methylsulfonyl-thiazole-4-carboxamide], the EC50 was 631 nM in assay [1] and over 10000 nM on human androgen receptor.
The matching figures for `CCS(=O)(=O)NC(=O)c1nc(N(CCc2ccc(C#N)cc2)CC2CCCCC2)sc1C` [Compound 717, 2-[2-(4-cyanophenyl)ethyl-(cyclohexylmethyl)amino]-N-ethylsulfonyl-5-methyl-thiazole-4-carboxamide]: 1000 nM and over 10000 nM.
For `Cc1sc(N(CCc2ccc(C#N)cc2)Cc2ccc(OC(F)(F)F)cc2)nc1C(=O)NS(=O)(=O)C1CC1` [Compound 721, 2-[2-(4-cyanophenyl)ethyl-[[4-(trifluoromethoxy)phenyl]methyl]amino]-N-cyclopropylsulfonyl-5-methyl-thiazole-4-carboxamide], in that order: 158 nM and over 10000 nM.
The matching figures for `Cc1sc(N(CCc2ccc(C#N)cc2)Cc2ccc(OC(F)(F)F)cc2)nc1C(=O)NS(=O)(=O)C(F)(F)F` [Compound 722, 2-[2-(4-cyanophenyl)ethyl-[[4-(trifluoromethoxy)phenyl]methyl]amino]-5-methyl-N-(trifluoromethylsulfonyl)thiazole-4-carboxamide]: 251 nM and over 10000 nM.
Regarding `Cc1sc(N(CCC2CCCCC2)Cc2ccc(Cl)cc2)nc1C(=O)NS(=O)(=O)C(F)(F)F` [Compound 723, 2-[(4-chlorophenyl)methyl-(2-cyclohexylethyl)amino]-5-methyl-N-(trifluoromethylsulfonyl)thiazole-4-carboxamide], the results for the EC50 (in assay [1]; on human androgen receptor) were 501 nM and over 10000 nM, respectively.
The matching figures for `Cc1sc(N(CCC2CCCCC2)Cc2ccc(OC(F)(F)F)cc2)nc1C(=O)NS(=O)(=O)C(F)(F)F` [Compound 724, 2-[2-cyclohexylethyl-[[4-(trifluoromethoxy)phenyl]methyl]amino]-5-methyl-N-(trifluoromethylsulfonyl)thiazole-4-carboxamide]: 501 nM and over 10000 nM.
The matching figures for `Cc1sc(N(CCc2ccc(C#N)cc2)CC2CCCCC2)nc1C(=O)NS(=O)(=O)Cc1cccnc1` [Compound 725, 2-[2-(4-cyanophenyl)ethyl-(cyclohexylmethyl)amino]-5-methyl-N-(3-pyridylmethylsulfonyl)thiazole-4-carboxamide]: 100 nM and over 10000 nM.
The matching figures for `CCS(=O)(=O)NC(=O)c1nc(N(CCc2ccc(C#N)cc2)Cc2ccc(OC(F)(F)F)cc2)sc1C` [Compound 726, 2-[2-(4-cyanophenyl)ethyl-[[4-(trifluoromethoxy)phenyl]methyl]amino]-N-ethylsulfonyl-5-methyl-thiazole-4-carboxamide]: 31.6 nM and 1000 nM.
On to `Cc1sc(N(CCc2ccc(C#N)cc2)Cc2ccc(OC(F)(F)F)cc2)nc1C(=O)NS(=O)(=O)Cc1cccc(F)c1` [Compound 727, 2-[2-(4-cyanophenyl)ethyl-[[4-(trifluoromethoxy)phenyl]methyl]amino]-N-[(3-fluorophenyl)methylsulfonyl]-5-methyl-thiazole-4-carboxamide], for which the results for the EC50 (in assay [1]; on human androgen receptor) were 200 nM and over 10000 nM, respectively.
With `Cc1sc(N(CCC2CCCCC2)Cc2ccc(Cl)cc2)nc1C(=O)NS(C)(=O)=O` [Compound 728, 2-[(4-chlorophenyl)methyl-(2-cyclohexylethyl)amino]-5-methyl-N-methylsulfonyl-thiazole-4-carboxamide], the results for the EC50 (in assay [1]; on human androgen receptor) were 39.8 nM and 631 nM, respectively.
For `CCS(=O)(=O)NC(=O)c1nc(N(CCC2CCCCC2)Cc2ccc(Cl)cc2)sc1C` [Compound 729, 2-[(4-chlorophenyl)methyl-(2-cyclohexylethyl)amino]-N-ethylsulfonyl-5-methyl-thiazole-4-carboxamide], in that order: 126 nM and 5010 nM.
